Key:
[1] = test system: subjects with atopic dermatitis; assay: Phase 2 study, tolerability and Treatment Emergent Adverse Events; assay type: in vivo, human
Protocol: Oral Difelikefalin 0.25 mg, 0.5 mg, 1.0 mg, or placebo was administered twice daily (BID) in subjects with atopic dermatitis (baseline validated Investigator's Global Assessment scale for AD: vIGA-ADTM≥2 and body surface area [BSA]≤30%) and moderate-to-severe AD-related pruritus (mean baseline Itch Numerical Rating Scale [I-NRS, 0-10 scale] score ≥5.0). The primary and key secondary endpoints were the change from baseline in the weekly mean of the daily I-NRS score at Week 12, and the proportion of subjects achieving at least a 4-point improvement from baseline in I-NRS score at Week 12, respectively.
There were no deaths in the study. Abdominal pain was the most common TEAE leading to study drug discontinuation in the 1.0 mg dose group (6.5%), compared to placebo (1.6%), 0.25 mg (0%) and 0.5 mg (0%) dose groups.

Solubility in water = assay type: physicochemical; conditions: acetate salt

SMILES	abdominal pain TEAE leading to study drug discontinuation ([1]; 0.25 mg dose group) [%]	abdominal pain TEAE leading to study drug discontinuation ([1]; 0.5 mg dose group) [%]	abdominal pain TEAE leading to study drug discontinuation ([1]; 1.0 mg dose group) [%]	deaths in the study ([1]; in vivo)	severity of the majority of reported TEAEs ([1]; in vivo)	overall tolerability ([1]; oral, twice daily, 12-week Treatment Period)	most common Treatment Emergent Adverse Events (TEAEs) ([1]; ≥5% in any dose group)	solubility in water (Solubility in water)
CC(C)C[C@@H](NC(=O)[C@@H](Cc1ccccc1)NC(=O)[C@H](N)Cc1ccccc1)C(=O)N[C@H](CCCCN)C(=O)N1CCC(N)(C(=O)O)CC1 [Difelikefalin]	0	0	6.5	no deaths	mild or moderate	generally well-tolerated	abdominal pain, nausea, dry mouth, headache, dizziness and hypertension	
CC(=O)O.CC(C)C[C@@H](NC(=O)[C@@H](Cc1ccccc1)NC(=O)[C@H](N)Cc1ccccc1)C(=O)N[C@H](CCCCN)C(=O)N1CCC(N)(C(=O)O)CC1 [Difelikefalin acetate, 4-amino-1-(D-phenylalanyl-D-phenylalanyl-D-leucyl-D-lysyl)piperidine-4-carboxylic acid, acetate salt]								soluble in water
